15 compounds from ChEMBL document CHEMBL4828715, “Discovery, Structure-Activity Relationships, and In Vivo Evaluation of Novel Aryl Amides as Brain Penetrant Adaptor Protein 2-Associated Kinase 1 (AAK1) Inhibitors for the Treatment of Neuropathic Pain” (J Med Chem, 2021) can be followed below.

Data set [1] is described as follows: Permeability of the compound across basolateral to apical membrane in human Caco-2 cells incubated for 2 hrs by LC-MS/MS analysis. Format: ADME, cell-based. The settings on record: Caco-2, read-out: permeability. Background: Caco-2 cells form a polarised layer with tight junctions and transporters.
Data set [2] has as its system Rattus norvegicus. Description: Antinociceptive activity in Sprague-Dawley rat model of chronic constriction injury-induced neuropathic pain assessed as reduction in paw withdrawal latency at 100 mg/kg, po by Von Frey test. In kind it is functional, organism-based.
The test system of data set [3] is Rattus norvegicus. The data set is described as follows: Antinociceptive activity in Sprague-Dawley rat model of chronic constriction injury-induced neuropathic pain assessed as reduction in thermal hyperalgesia 100 mg/kg, po by Von Frey test relative to control. Format: functional. On the set-up: scale not given: the % may be the effect or the level left.
Data set [4] has as its system Rattus norvegicus. Description: Antinociceptive activity in Sprague-Dawley rat model of chronic constriction injury-induced neuropathic pain assessed as reduction in mechanical hyperalgesia 100 mg/kg, po by Von Frey test relative to control. On the set-up: scale not given: the % may be the effect or the level left. In kind it is functional.
The test system of data set [5] is Rattus norvegicus. The data set is described as follows: Reversal of chronic constriction injury-induced cold allodynia in Sprague-Dawley rat model of neuropathic pain at 100 mg/kg, po measured up to 180 mins relative to control. In kind it is functional. The following applies: time min <=180.
Data set [6] relates to Rattus norvegicus. The data set is described as follows: Reversal of chronic constriction injury-induced mechanical allodynia in Sprague-Dawley rat model of neuropathic pain at 100 mg/kg, sc measured up to 180 mins relative to control. Format: functional. The settings on record: time min <=180.
Data set [7] is described as follows: Induction of motor coordination impairment in Sprague-Dawley rat at 100 mg/kg, po measured up to 180 mins by rotarod test. In kind it is organism-based. The following applies: in vivo, 3 h. For orientation: The rotarod test checks motor coordination on a turning rod.
Data set [8] in a line: Toxicity in Sprague-Dawley rat assessed as drowsiness at 100 mg/kg, po. Format: organism-based. The settings on record: in vivo.
Data set [9] can be described thus: Toxicity in Sprague-Dawley rat assessed as dizziness at 100 mg/kg, po. In kind it is organism-based. The settings on record: in vivo.
Data set [10] can be described thus: Toxicity in Sprague-Dawley rat assessed as unsteadiness at 100 mg/kg, po. In kind it is organism-based. The settings on record: in vivo.
Data set [11] can be described thus: Permeability of the compound across apical to basolateral membrane in human Caco-2 cells incubated for 2 hrs by LC-MS/MS analysis.
Data set [12] concerns the target T1, AP2-associated protein kinase 1 (Homo sapiens, UniProt Q2M2I8). The data set is described as follows: Inhibition of recombinant GST-Xa-tagged human AAK1 (30 to 330 residues) using 5-FAM-labelled Alla-KEEQSQITSQVTGQIGWR-NH2 peptide as substrate incubated for 3 hrs in presence of ATP by electrophoretic analysis.
Data set [13] in a line: Metabolic stability in human liver microsomes assessed as parent compound remaining at 0.5 uM incubated for 10 mins in presence of NADPH by LC-MS/MS analysis. Format: ADME, Microsome. The following applies: read-out: Stability. For orientation: Liver microsomes are vesicles of endoplasmic reticulum, rich in cytochrome P450 enzymes.
Data set [14] in a line: Metabolic stability in rat liver microsomes assessed as parent compound remaining at 0.5 uM incubated for 10 mins in presence of NADPH by LC-MS/MS analysis. The following applies: read-out: Stability. Format: ADME, Microsome.
Data set [15] is described as follows: Metabolic stability in mouse liver microsomes assessed as parent compound remaining at 0.5 uM incubated for 10 mins in presence of NADPH by LC-MS/MS analysis. The following applies: read-out: Stability. Format: ADME, Microsome.
The target in data set [16] is T1, AP2-associated protein kinase 1. Description: Inhibition of human AAK1 expressed in HEK293 cells assessed as suppression of AP2 phosphorylation measured after 3 hrs by Western blot analysis. In kind it is cell-based.
A short description of data set [17]: Protein binding in human plasma assessed as unbound fraction at 10 uM measured after 5 hrs by equilibrium dialysis method.
Data set [18] in a line: Protein binding in rat plasma assessed as unbound fraction at 10 uM measured after 5 hrs by equilibrium dialysis method.
Data set [19] can be described thus: Protein binding in mouse plasma assessed as unbound fraction at 10 uM measured after 5 hrs by equilibrium dialysis method.
Data set [20] can be described thus: Efflux ratio of permeability across basolateral to apical membrane over apical to basolateral membrane in human Caco-2 cells.
Data set [21] can be described thus: Drug concentration in C57BL6 mouse plasma at 30 mg/kg, sc measured after 2 hrs by LC-MS/MS analysis. Format: ADME, organism-based.
Data set [22] in a line: Drug concentration in C57BL6 mouse brain at 30 mg/kg, sc measured after 2 hrs by LC-MS/MS analysis. In kind it is ADME, organism-based. The settings on record: read-out: Ct.
The nature of data set [23]: Ratio of drug concentration in brain to plasma in C57BL6 mouse at […], sc. In kind it is ADME. The settings on record: read-out: BPR.
The nature of data set [24]: Permeability of the compound at pH 5.5 incubated for 4 hrs by PAMPA-based UV spectrophotometry. The settings on record: read-out: permeability. In kind it is ADME.
A short description of data set [25]: Permeability of the compound at pH 7.4 incubated for 4 hrs by PAMPA-based UV spectrophotometry. Format: ADME. The settings on record: for Papp at 4 h: PAMPA, pH 7.4, read-out: permeability.
Data set [26] has as its target T1, AP2-associated protein kinase 1. The data set is described as follows: Inhibition of AAK1 (unknown origin).

Calls of active or inactive are those of the source. The rule behind the calls is not given here.

T1 sequence (Q2M2I8 whole entry, the tested form may be a part): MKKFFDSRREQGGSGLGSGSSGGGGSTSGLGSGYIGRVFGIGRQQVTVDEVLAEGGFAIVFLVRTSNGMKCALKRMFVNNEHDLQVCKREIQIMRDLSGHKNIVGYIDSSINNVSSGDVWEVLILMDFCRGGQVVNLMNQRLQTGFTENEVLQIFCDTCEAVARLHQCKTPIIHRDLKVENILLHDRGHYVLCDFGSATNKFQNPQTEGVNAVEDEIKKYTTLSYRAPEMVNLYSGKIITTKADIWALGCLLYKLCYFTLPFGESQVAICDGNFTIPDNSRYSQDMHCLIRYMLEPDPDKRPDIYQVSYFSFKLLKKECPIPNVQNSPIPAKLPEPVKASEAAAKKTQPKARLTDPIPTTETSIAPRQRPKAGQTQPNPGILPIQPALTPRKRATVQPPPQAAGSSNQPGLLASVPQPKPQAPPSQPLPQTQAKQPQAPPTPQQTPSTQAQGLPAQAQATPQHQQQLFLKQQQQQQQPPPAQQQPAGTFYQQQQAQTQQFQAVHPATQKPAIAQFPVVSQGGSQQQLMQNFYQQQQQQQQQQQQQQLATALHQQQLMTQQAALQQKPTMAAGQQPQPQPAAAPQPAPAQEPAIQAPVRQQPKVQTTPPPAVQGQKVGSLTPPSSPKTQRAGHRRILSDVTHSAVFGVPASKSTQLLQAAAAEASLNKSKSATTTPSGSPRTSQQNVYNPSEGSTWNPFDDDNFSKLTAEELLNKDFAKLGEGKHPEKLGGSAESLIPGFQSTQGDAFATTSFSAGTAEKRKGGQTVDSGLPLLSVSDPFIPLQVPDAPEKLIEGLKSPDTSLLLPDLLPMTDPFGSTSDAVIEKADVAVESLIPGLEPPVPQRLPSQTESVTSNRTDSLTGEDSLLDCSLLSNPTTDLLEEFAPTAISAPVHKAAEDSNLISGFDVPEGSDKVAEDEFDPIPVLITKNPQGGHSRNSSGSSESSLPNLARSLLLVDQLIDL

For the compound `C[C@H]1O[C@@H](O[C@H]2[C@@H](O)C[C@H](O[C@H]3[C@@H](O)C[C@H](O[C@H]4CC[C@@]5(C)[C@H](CC[C@@H]6[C@@H]5C[C@@H](O)[C@]5(C)[C@@H](C7=CC(=O)OC7)CC[C@]65O)C4)O[C@@H]3C)O[C@@H]2C)C[C@H](O)[C@@H]1O` [DIGOXIN], in [1], the Papp B→A at 2 h was 10 ×10⁻⁶ cm/s.
Regarding `NCC1(CC(=O)O)CCCCC1` [GABAPENTIN], the outcome in data set [2] was Active. Besides, the Activity is given as 89% in data set [3]; 32% in data set [4]; 54% in data set [5]; 34% in [6]; “Toxic” in [7]; “Toxic” in [8]. Also, the Activity result in data set [9] and in data set [10] was “Toxic” throughout.
As for `COc1cc(NC(=O)[C@H](N)CC(C)C)ccc1-c1cn[nH]c1`, the Papp B→A at 2 h in data set [1] worked out at 14.9 ×10⁻⁶ cm/s. Moreover, in data set [11], the Papp A→B (commonly the apparent permeability from the apical to the basolateral side of a cell layer) at 2 h was found to be 4 ×10⁻⁶ cm/s. For the same compound, the IC50 (commonly the midpoint of a concentration-inhibition curve) in data set [12] stood at 15 nM; in data set [16], 190 nM. For the same compound, the remaining at 10 min, 0.5 µM was determined as 85% in [13], 74% in data set [14] and 34% in data set [15]. Further, the fraction unbound – broadly, free concentration divided by total concentration – at 5 h, 10 µM came to 0.18 in [17], 0.1 in data set [18] and 0.2 in data set [19]. For the same compound, the efflux ratio (usually a quotient of directional permeabilities that is used to spot active efflux) in data set [20] turned out to be 3.3. For the same compound, the concentration at 2 h was determined as 29.9 µM in [21] and 5.7 µM in data set [22]. The Kp in [23] was 0.21.
With `COc1cc(NC(=O)[C@@H]2NCCC[C@@H]2C(C)C)ccc1-c1cnco1`, the Papp B→A at 2 h in [1] was 11.9 ×10⁻⁶ cm/s. In data set [11], this compound yielded a Papp A→B at 2 h of 16.7 ×10⁻⁶ cm/s. Moreover, the values for the IC50 in data set [12] and in data set [16] were 10 nM and 105 nM, respectively. For the same compound, the remaining at 10 min, 0.5 µM in [13] was found to be 60%; in [14], 42%; in data set [15] it was 2%. Further, the Papp at 4 h in data set [24] was determined as 47.1 ×10⁻⁶ cm/s; in data set [25], 43.5 ×10⁻⁶ cm/s. In addition, the fraction unbound at 5 h, 10 µM in data set [17] was found to be 0.19; in data set [18] it was 0.059; in [19], 0.028.
Compound `Cc1nccc2c1c(=O)n(C)c1cc(OC[C@@H](N)CC(C)C)c(C#N)cc21` displayed an IC50 in data set [26] of 0.7 nM.
As for `CC(C(=O)O)c1cccc(C(=O)c2ccccc2)c1` (centres undefined) [KETOPROFEN], the Papp at 4 h in data set [24] is 34.2 ×10⁻⁶ cm/s; in data set [25], 1.1 ×10⁻⁶ cm/s.
With `COCCc1ccc(OCC(O)CNC(C)C)cc1` (centres undefined) [METOPROLOL], the Papp at 4 h in data set [24] was 10.2 ×10⁻⁶ cm/s. In data set [25] (pampa, pH 7.4, 4 h), the permeability is given as 83.5 10^-6 cm/s.
Consider `COc1cc(NC(=O)[C@H](N)CC(C)C)ccc1-c1cnco1`, for which the Papp B→A at 2 h in [1] worked out at 15.1 ×10⁻⁶ cm/s. Besides, the Papp A→B at 2 h in data set [11] turned out to be 13.7 ×10⁻⁶ cm/s. In addition, the results for the IC50 in data set [12] and in [16] were 12 nM and 60 nM, respectively. Further, the remaining at 10 min, 0.5 µM in [13] amounted to 89%; in data set [14], 75%; in data set [15] it was 64%. Besides, the Papp at 4 h was 56.9 ×10⁻⁶ cm/s in [24] and 58.4 ×10⁻⁶ cm/s in data set [25]. For the same compound, the fraction unbound at 5 h, 10 µM in [17] is 0.063; in data set [18] it was 0.023; in [19], 0.086. Also, the concentration at 2 h in [21] was 7.3 µM; in [22], 6.8 µM. Besides, in data set [23], the Kp is 1.17.
For the compound `COc1cc(NC(=O)CC2CCCC2)ccc1-c1cnco1`, in data set [12], the IC50 is 80 nM. In addition, the remaining at 10 min, 0.5 µM in [13] was found to be 64%; in data set [14] it was 58%; in [15], 46%.
The like results for `COc1cc(NC(=O)[C@@H](C)N)ccc1-c1cnco1` were, in that order, 1300 nM, 100%, 100% and 97%.
Turning to `COc1cc(NC(=O)[C@H](N)CC2CC2)ccc1-c1cnco1`, the IC50 in [12] came to 45 nM. In addition, the remaining at 10 min, 0.5 µM was 100% in data set [13], 74% in data set [14] and 79% in data set [15].
Taken in the same sequence, the figures for `COc1cc(NC(=O)[C@H](N)CC(C)C)ccc1-c1ccncn1` were 290 nM, 71%, 52% and 40%.
The like results for `Cc1cc(NC(=O)[C@H](N)CC(C)C)ccc1-c1cnco1` were, in that order, 48 nM, 74%, 74% and 43%.
Taken in the same sequence, the figures for `CCC[C@@H](N)C(=O)Nc1ccc(-c2cnco2)c(OC)c1` were 90 nM, 87%, 63% and 49%.
As to `COc1cc(NC(=O)C[C@@H](N)C(C)C)ccc1-c1cnco1`, the IC50 in [12] came to 127 nM. The remaining at 10 min, 0.5 µM in data set [13] came to 82%; in [14] it was 4%; in data set [15] it was 7%.
